Data as given in patent US20250144067A1, “PERSONALIZED STARVATION THERAPY FOR CANCER” (Faeth Therapeutics, Inc., priority 2021, published 2025).
Structures can show the parent of a compound that is named as a salt. Where two headings read alike, the source gives them in different places.

How the values were obtained:
[1] = tested on: NCI-H292 lung cancer cells; assay: FDA drug screening, complete media vs cholesterol-free media without statin (TABLE 1); format: cell-based, human
[2] = tested on: NCI-H292 lung cancer cells; assay: FDA drug screening, complete media vs cholesterol-free media with simvastatin (TABLE 2); format: cell-based, human
[3] = NCI-H292 cells, cholesterol-free media without statin
[4] = complete vs cholesterol-free media, greater than 0 enhanced anti-cancer activity, about 0 neutral, below 0 antagonists
[5] = NCI-H292 cells, drug in cholesterol-free media with simvastatin 0.04 μM
[6] = NCI-H292 cells, drug in complete media
[7] = complete media vs cholesterol-free media + simvastatin (0.04 μM), >0 enhanced anti-cancer activity, about 0 neutral, <0 antagonist
[8] = Complete minus Cholesterol-free, greater than 0 enhanced anti-cancer activity, about 0 neutral, below 0 antagonists
[9] = NCI-H292 cells in cholesterol-free media without statin
[10] = NCI-H292 cells in complete media
[11] = NCI-H292 cells, cholesterol-free media with simvastatin 0.04 μM, FDA drug library screen (TABLE 2)
[12] = NCI-H292 cells, complete media, FDA drug library screen (TABLE 2)
[13] = complete media minus cholesterol-free media + simvastatin (0.04 μM), >0 enhanced anti-cancer activity, about 0 neutral, <0 antagonist
[14] = Complete minus Cholesterol-free, >0 enhanced anti-cancer activity, about 0 neutral, <0 antagonist
[15] = NCI-H292 cells, FDA drug library screen, cholesterol-free media with simvastatin 0.04 μM
[16] = NCI-H292 cells, FDA drug library screen, complete media
[17] = complete media minus cholesterol-free media + simvastatin, >0 enhanced anti-cancer activity, about 0 neutral, <0 antagonist
[18] = NCI-H292 cells, cholesterol-free media with simvastatin 0.04 μM, cell growth value in FDA drug screen
[19] = NCI-H292 cells, complete media, cell growth value in FDA drug screen
[20] = NCI-H292 cells, cholesterol-free media without statin, FDA drug library screen
[21] = NCI-H292 cells, complete media, FDA drug library screen
[22] = complete vs cholesterol-free media, >0 enhanced anti-cancer activity, about 0 neutral, <0 antagonist
[23] = NCI-H292 cells, FDA library drug in cholesterol-free media with simvastatin 0.04 μM
[24] = NCI-H292 cells, FDA library drug in complete media
[25] = Complete minus Cholesterol-free, greater than 0 enhanced anti-cancer activity, about 0 neutral, below 0 antagonist
[26] = NCI-H292 cells, FDA drug library screen, cholesterol-free media without statin
[27] = Complete minus Cholesterol-free, […]

CC1COc2c(N3CCN(C)CC3)c(F)cc3c(=O)c(C(=O)O)cn1c23 (stereo not shown) [Ofloxacin]
Cholesterol-free [1, 3]: 1.221 | Complete ([1]; NCI-H292 cells, complete media): 0.8562 | Difference [1, 4]: −0.36 | Cholesterol-free media + simvastatin (0.04 μM) [2, 5]: 1.154 | Complete Media [2, 6]: 0.9389 | Difference [2, 7]: −0.22

Cc1cc2c(s1)Nc1ccccc1N=C2N1CCN(C)CC1 [Olanzapine]
Cholesterol-free [1]: 0.9635 | Complete [1]: 0.9217 | Difference [1]: −0.04 | Cholesterol-free media + simvastatin (0.04 μM) [2]: 1.722 | Complete Media [2]: 1.489 | Difference [2]: −0.23

O=C(c1cc(Cc2n[nH]c(=O)c3ccccc23)ccc1F)N1CCN(C(=O)C2CC2)CC1 [Olaparib]
Difference [1, 8]: −0.72 | Cholesterol-free [1, 9]: 1.436 | Complete [1, 10]: 0.7169 | Cholesterol-free media + simvastatin (0.04 μM) [2, 11]: 0.8331 | Complete Media [2, 12]: 0.8347 | Difference [2, 13]: 0.00

CC1(C)CC[C@]2(C(=O)O)CC[C@]3(C)C(=CC[C@@H]4[C@@]5(C)CC[C@H](O)C(C)(C)[C@@H]5CC[C@]43C)[C@@H]2C1 [Oleanolic Acid]
Difference [1, 14]: −0.19 | Cholesterol-free [1, 3]: 1.001 | Complete ([1]; NCI-H292 cells, complete media): 0.8111 | Cholesterol-free media + simvastatin (0.04 μM) [2, 15]: 1.063 | Complete Media [2, 16]: 1.721 | Difference [2, 17]: 0.66

CCCCCCCC/C=C\CCCCCCCC(=O)O [Oleic acid]
Difference [1, 14]: −0.25 | Cholesterol-free [1, 3]: 1.214 | Complete ([1]; NCI-H292 cells, complete media): 0.9643 | Cholesterol-free media + simvastatin (0.04 μM) [2, 18]: 0.7267 | Complete Media [2, 19]: 0.8301 | Difference [2, 17]: 0.10

CCCc1nc(C(C)(C)O)c(C(=O)OCc2oc(=O)oc2C)n1Cc1ccc(-c2ccccc2-c2nnn[nH]2)cc1 [Olmesartan medoxomil]
Cholesterol-free [1, 20]: 0.613 | Complete [1, 21]: 1.033 | Difference [1, 22]: 0.42 | Cholesterol-free media + simvastatin (0.04 μM) [2, 23]: 2.007 | Complete Media [2, 24]: 1.701 | Difference [2, 7]: −0.31

CCCc1nc(C(C)(C)O)c(C(=O)O)n1Cc1ccc(-c2ccccc2-c2nnn[nH]2)cc1 [Olmesartan]
Cholesterol-free [1, 3]: 1.93 | Complete ([1]; NCI-H292 cells, complete media): 1.465 | Difference [1, 4]: −0.46 | Cholesterol-free media + simvastatin (0.04 μM) [2, 5]: 1.131 | Complete Media [2, 6]: 0.942 | Difference [2, 7]: −0.19

C=CC(=O)Nc1cccc(Oc2nc(Nc3ccc(N4CCN(C)CC4)cc3)nc3ccsc23)c1 [Olmutinib]
Cholesterol-free [1, 20]: 0.5571 | Complete [1, 21]: 0.798 | Difference [1, 22]: 0.24 | Cholesterol-free media + simvastatin (0.04 μM) [2, 15]: 0.5571 | Complete Media [2, 16]: 0.4482 | Difference [2, 7]: −0.11

CN(C)CC/C=C1/c2ccccc2COc2ccc(CC(=O)O)cc21 [Olopatadine (hydrochloride)]
Difference [1, 25]: −0.13 | Cholesterol-free [1, 26]: 1.018 | Complete [1, 16]: 0.8917 | Cholesterol-free media + simvastatin (0.04 μM) [2, 15]: 0.9644 | Complete Media [2, 16]: 0.8474 | Difference [2, 7]: −0.12

Cc1[nH]c(=O)c(C#N)cc1-c1ccc2nccn2c1 [Olprinone (Hydrochloride)]
Difference [1, 14]: −0.27 | Cholesterol-free [1, 3]: 1.142 | Complete ([1]; NCI-H292 cells, complete media): 0.8745 | Cholesterol-free media + simvastatin (0.04 μM) [2, 11]: 1.653 | Complete Media [2, 12]: 1.64 | Difference [2, 13]: −0.01

O=C(O)c1cc(/N=N/c2ccc(O)c(C(=O)O)c2)ccc1O [Olsalazine (Disodium)]
Difference [1, 14]: −0.25 | Cholesterol-free [1, 3]: 1.211 | Complete ([1]; NCI-H292 cells, complete media): 0.9604 | Cholesterol-free media + simvastatin (0.04 μM) [2, 11]: 1.218 | Difference [2, 13]: −0.07

CN(C)c1cc(CNCC(C)(C)C)c(O)c2c1C[C@H]1C[C@H]3[C@H](N(C)C)C(O)=C(C(N)=O)C(=O)[C@@]3(O)C(O)=C1C2=O [Omadacycline (hydrochloride)]
Difference [1, 25]: −0.15 | Cholesterol-free [1, 26]: 1.103 | Complete [1, 16]: 0.9531 | Cholesterol-free media + simvastatin (0.04 μM) [2, 15]: 1.209 | Complete Media [2, 16]: 1.089 | Difference [2, 7]: −0.12

CS(=O)(=O)n1cc2c(n1)CN([C@H]1CO[C@H](c3cc(F)ccc3F)[C@@H](N)C1)C2 [Omarigliptin]
Difference [1, 8]: −0.63 | Cholesterol-free [1, 9]: 1.475 | Complete [1, 10]: 0.8446 | Cholesterol-free media + simvastatin (0.04 μM) [2, 23]: 1.764 | Complete Media [2, 24]: 1.42 | Difference [2, 7]: −0.34

COC(=O)N[C@H](C(=O)N1CCC[C@H]1C(=O)Nc1ccc([C@@H]2CC[C@@H](c3ccc(NC(=O)[C@@H]4CCCN4C(=O)[C@@H](NC(=O)OC)C(C)C)cc3)N2c2ccc(C(C)(C)C)cc2)cc1)C(C)C [Ombitasvir]
Difference [1, 27]: −0.17 | Cholesterol-free [1, 26]: 1.001 | Complete [1, 16]: 0.8331 | Cholesterol-free media + simvastatin (0.04 μM) [2, 11]: 0.6017 | Complete Media [2, 12]: 0.5358 | Difference ([2]; complete media minus cholesterol-free media + simvastatin (0.04 μM), […]): −0.07

COc1ccc2[n-]c([S+]([O-])Cc3ncc(C)c(OC)c3C)nc2c1.[Na+] (stereo not shown) [Omeprazole (sodium)]
Difference [1, 14]: −0.07 | Cholesterol-free [1, 20]: 0.7641 | Complete [1, 21]: 0.6989 | Cholesterol-free media + simvastatin (0.04 μM) [2, 11]: 0.9544 | Complete Media [2, 12]: 0.9688 | Difference [2, 13]: 0.01

COc1ccc2[nH]c([S+]([O-])Cc3ncc(C)c(OC)c3C)nc2c1 (stereo not shown) [Omeprazole]
Difference [1, 25]: −0.12 | Cholesterol-free [1, 26]: 0.995 | Complete [1, 16]: 0.8798 | Cholesterol-free media + simvastatin (0.04 μM) [2, 5]: 0.8585 | Complete Media [2, 6]: 0.6883 | Difference [2, 7]: −0.17

CC(C)OC(=O)CNc1cccc(CN(Cc2ccc(-n3cccn3)cc2)S(=O)(=O)c2cccnc2)n1 [Omidenepag isopropyl]
Difference [1, 8]: −0.75 | Cholesterol-free [1, 9]: 1.563 | Complete [1, 10]: 0.8153 | Cholesterol-free media + simvastatin (0.04 μM) [2, 18]: 1.236 | Complete Media [2, 19]: 1.286 | Difference [2, 17]: 0.05

Cc1nccn1CC1CCc2c(c3ccccc3n2C)C1=O (stereo not shown) [Ondansetron]
Difference [1, 14]: −0.05 | Cholesterol-free [1, 20]: 1.168 | Complete [1, 21]: 1.123 | Cholesterol-free media + simvastatin (0.04 μM) [2, 11]: 1.019 | Complete Media [2, 12]: 0.948 | Difference [2, 13]: −0.07

Cc1c(Cl)c(C)[n+]([O-])c(Cl)c1-c1noc(-c2cc(O)c(O)c([N+](=O)[O-])c2)n1 [Opicapone]
Difference [1, 25]: −0.13 | Cholesterol-free [1, 26]: 0.8861 | Complete [1, 16]: 0.7591 | Cholesterol-free media + simvastatin (0.04 μM) [2, 11]: 0.9346 | Complete Media [2, 12]: 0.8971 | Difference [2, 13]: −0.04

CCCCCCCCCCC[C@@H](C[C@@H]1OC(=O)[C@H]1CCCCCC)OC(=O)[C@H](CC(C)C)NC=O [Orlistat]
Cholesterol-free [1, 20]: 1.018 | Complete [1, 21]: 1.513 | Difference [1, 22]: 0.49 | Cholesterol-free media + simvastatin (0.04 μM) [2, 15]: 1.19 | Complete Media [2, 16]: 1.622 | Difference [2, 17]: 0.43

Cc1ncc([N+](=O)[O-])n1CC(O)CCl (stereo not shown) [Ornidazole (Levo-)]
Difference [1, 8]: −0.58 | Cholesterol-free [1, 9]: 1.634 | Complete [1, 10]: 1.058 | Cholesterol-free media + simvastatin (0.04 μM) [2, 18]: 0.9725 | Complete Media [2, 19]: 1.072 | Difference [2, 17]: 0.10

Cc1ncc([N+](=O)[O-])n1CC(O)CCl (stereo not shown) [Ornidazole]
Cholesterol-free [1, 20]: 0.6543 | Complete [1, 21]: 1.082 | Difference [1, 22]: 0.43 | Cholesterol-free media + simvastatin (0.04 μM) [2, 5]: 1.385 | Complete Media [2, 6]: 1.209 | Difference [2, 7]: −0.18

NCCC[C@H](NC(=O)[C@@H]1CCCN1C(=O)[C@@H]1CSSC[C@H](N)C(=O)N[C@@H](Cc2ccc(O)cc2)C(=O)N[C@@H](Cc2ccccc2)C(=O)N[C@@H](CCC(N)=O)C(=O)N[C@@H](CC(N)=O)C(=O)N1)C(=O)NCC(N)=O [Ornipressin]
Difference [1, 27]: 0.03 | Cholesterol-free [1, 20]: 1.024 | Complete [1, 21]: 1.051 | Cholesterol-free media + simvastatin (0.04 μM) [2, 23]: 1.553 | Complete Media [2, 24]: 0.7895 | Difference ([2]; complete media vs cholesterol-free media + simvastatin (0.04 μM), […]): −0.76

O=C(O)c1cc(=O)[nH]c(=O)[nH]1 [Orotic acid]
Difference [1, 14]: −0.23 | Cholesterol-free [1, 3]: 1.001 | Complete ([1]; NCI-H292 cells, complete media): 0.7657 | Cholesterol-free media + simvastatin (0.04 μM) [2, 18]: 1.191 | Complete Media [2, 19]: 1.261 | Difference [2, 17]: 0.07

O=C(Nc1ccc(O)cc1)c1ccccc1O [Osalmid]
Cholesterol-free [1, 20]: 1.209 | Complete [1, 21]: 1.432 | Difference [1, 22]: 0.22 | Cholesterol-free media + simvastatin (0.04 μM) [2, 11]: 0.9033 | Complete Media [2, 12]: 0.8951 | Difference [2, 13]: −0.01

CCC(CC)O[C@@H]1C=C(C(=O)O)C[C@H](N)[C@H]1NC(C)=O [Oseltamivir acid]
Cholesterol-free [1, 3]: 1.419 | Complete ([1]; NCI-H292 cells, complete media): 0.9754 | Difference [1, 4]: −0.44 | Cholesterol-free media + simvastatin (0.04 μM) [2, 18]: 0.944 | Complete Media [2, 19]: 1.053 | Difference [2, 17]: 0.11

N#Cc1ccc([C@H]2CCc3cncn32)c(F)c1 [Osilodrostat]
Difference [1, 8]: −0.71 | Cholesterol-free [1, 9]: 1.647 | Complete [1, 10]: 0.935 | Cholesterol-free media + simvastatin (0.04 μM) [2, 15]: 1.26 | Difference [2, 7]: −0.11
